Results on 9 substances are retold here after publication PMC4703368, “A Conserved Interaction between a C-Terminal Motif in Norovirus VPg and the HEAT-1 Domain of eIF4G Is Essential for Translation Initiation” (PLoS Pathogens, 2016).

Assay [1] has as its target His-eIF4GI HEAT-1. Kind of assay: cobalt affinity pull-down, SDS PAGE band quantification. The settings on record: parent: est. 100; read off a plot.
Assay [2] deals with His-eIF4GI HEAT-1. Kind of assay: cobalt affinity pull-down, GST-VPg C-terminal fusions as prey (Fig 4B-E). It counts as binding, human. Conditions: for % binding (relative to WT) / Bait/Prey / Prey/Bait: Figure 4E; for % binding (relative to WT): ImageJ quantification; for Bait/Prey / Prey/Bait: band density ratio, ImageJ; for binding to His-eIF4GI HEAT-1 in cobalt pull-down: bait 2.6 µM, GST-VPg fusions 1.5 µM; for binding to His-eIF4GI HEAT-1 in cobalt pull-down / binding to His-eIF4GI HEAT-1, % of wild-type: 25 mM MES, 150 mM NaCl, pH 6.5; for binding to His-eIF4GI HEAT-1, % of wild-type: quantification of pull-down, Fig 4E.

Assay [3] has as its system His-tagged MNV VPg(1–124). Kind of assay: cobalt affinity pull-down, eIF4GI HEAT-1 mutants as prey (Fig 5D-E).

For the substance GST-MNV VPg(102–124) F123A, the percent of parent (% of WT (normalised OD ratio)) with His-eIF4GI HEAT-1 [1] worked out at 6.

For the substance GST-MNV VPg(102–124) D110A, the percent of parent (% of WT (normalised OD ratio)) with His-eIF4GI HEAT-1 [1] came out at 75.

For D110A, in the assay on His-eIF4GI HEAT-1 [2] (repeat 1, 2014-07-24), the “% binding (relative to WT)” value was found to be 71.5502%, the Bait/Prey was 3.801 and the Prey/Bait is reported as 0.2631. Besides, in the assay on His-eIF4GI HEAT-1 [2] (repeat 2, 2014-07-25), the “% binding (relative to WT)” value was found to be 69.0469%, the Bait/Prey is on record as 2.646 and the Prey/Bait is given as 0.3779. Further, in the assay with His-eIF4GI HEAT-1 [2] (repeat 3, 2014-07-25), the “% binding (relative to WT)” value is listed as 77.4561%, the Bait/Prey worked out at 2.312 and the Prey/Bait is recorded as 0.4326. In addition, in the assay with His-eIF4GI HEAT-1 [2] (repeat 4, 2014-07-31), the “% binding (relative to WT)” value came to 83.3957%, the Bait/Prey amounted to 2.418 and the Prey/Bait turned out to be 0.4136. Further, in the assay with His-eIF4GI HEAT-1 [2], the “binding to His-eIF4GI HEAT-1 in cobalt pull-down” value (shortened to “binding … in cobalt pull-down”) is “capable of binding eIF4GI HEAT-1” and the “binding to His-eIF4GI HEAT-1, % of wild-type” value is 60–80%.

As for GST-MNV VPg(102–124) V115A, the percent of parent (% of WT (normalised OD ratio)) with His-eIF4GI HEAT-1 [1] stood at 3.

E913R: the “Relative density normalised to WT (%)” value came to 72.7% in assay [3] (150 mM NaCl, experiment 1); 89.6% in assay [3] (150 mM NaCl, experiment 2); 82.8% in assay [3] (150 mM NaCl, experiment 3); 49.0% in assay [3] (300 mM NaCl, experiment 1); 56.0% in assay [3] (300 mM NaCl, experiment 2).

Take K120A: the “% binding (relative to WT)” value is reported as 102.078% in the assay on His-eIF4GI HEAT-1 [2] (repeat 1, 2014-07-24); 80.9274% with His-eIF4GI HEAT-1 [2] (repeat 2, 2014-07-25); 85.5916% in the assay on His-eIF4GI HEAT-1 [2] (repeat 3, 2014-07-25); 78.1139% with His-eIF4GI HEAT-1 [2] (repeat 4, 2014-07-31); 78.74% in the assay on His-eIF4GI HEAT-1 [2] (repeat 7, 2015-08-05). The Bait/Prey with His-eIF4GI HEAT-1 [2] (repeat 1, 2014-07-24) came out at 2.664; in the assay on His-eIF4GI HEAT-1 [2] (repeat 2, 2014-07-25), 2.258; in the assay with His-eIF4GI HEAT-1 [2] (repeat 3, 2014-07-25), 2.092; in the assay with His-eIF4GI HEAT-1 [2] (repeat 4, 2014-07-31), 2.581; with His-eIF4GI HEAT-1 [2] (repeat 7, 2015-08-05), 4.118. Further, the Prey/Bait in the assay with His-eIF4GI HEAT-1 [2] (repeat 1, 2014-07-24) is 0.3754; with His-eIF4GI HEAT-1 [2] (repeat 2, 2014-07-25), 0.4429; in the assay on His-eIF4GI HEAT-1 [2] (repeat 3, 2014-07-25) it was 0.478; in the assay on His-eIF4GI HEAT-1 [2] (repeat 4, 2014-07-31) it was 0.3874; in the assay with His-eIF4GI HEAT-1 [2] (repeat 7, 2015-08-05), 0.2428. For the same substance, the “binding … in cobalt pull-down” value in the assay with His-eIF4GI HEAT-1 [2] is “appears to bind as effectively as the wild-type sequence”.

For the substance GST-MNV VPg(102–124) R113A, the percent of parent (% of WT (normalised OD ratio)) in the assay with His-eIF4GI HEAT-1 [1] stood at 64.

On to R113A, for which, in the assay with His-eIF4GI HEAT-1 [2] (repeat 1, 2014-07-24), the “% binding (relative to WT)” value stood at 63.4705%, the Bait/Prey is listed as 4.285 and the Prey/Bait is listed as 0.2334. Also, in the assay on His-eIF4GI HEAT-1 [2] (repeat 2, 2014-07-25), the “% binding (relative to WT)” value was determined as 60.4116%, the Bait/Prey stood at 3.025 and the Prey/Bait was 0.3306. In the assay on His-eIF4GI HEAT-1 [2] (repeat 3, 2014-07-25), the “% binding (relative to WT)” value was 58.2069%, the Bait/Prey was found to be 3.0762 and the Prey/Bait is given as 0.3251. Further, in the assay on His-eIF4GI HEAT-1 [2] (repeat 4, 2014-07-31), the “% binding (relative to WT)” value is 76.2941%, the Bait/Prey worked out at 2.643 and the Prey/Bait came out at 0.3784. Also, in the assay on His-eIF4GI HEAT-1 [2], the “binding … in cobalt pull-down” value is recorded as “capable of binding eIF4GI HEAT-1” and the “binding to His-eIF4GI HEAT-1, % of wild-type” value is recorded as 60–80%.

GST-MNV VPg(102–124) K120A: the percent of parent (% of WT (normalised OD ratio)) with His-eIF4GI HEAT-1 [1] stood at 90.
